Results reported in US20240000724A1, “Compositions and Methods for Treatment or Prevention of Oral Mucositis” (PATHWAYS BIOSCIENCE, LLC, priority 2015, published 2024).
“Also recorded” adds a separate entry of the source. Read-outs that look alike come from different tables or passages of the source.

What was measured:
[1] = system: Nrf2 (ARE-driven luciferase gene expression); experiment: ARE-driven luciferase promoter-reporter assay in stably transfected human cancer cell lines; type: cell-based
Protocol: As an example of the properties of PB201, cell lines were cultured which had been stably transfected with constructs of the luciferase gene. This luciferase gene was driven in its promoter region by copies of the ARE Nrf2-binding sequence, known as promoter-reporter constructs (Simmons, Fan, Yeoman, Wakefield and Ramabhadran, NRF2 Oxidative Stress Induced by Heavy Metals is Cell Type Dependent, Curr Chem Genomics 5, 1-12 (2011); Shukla, Huang, Simmons, Tice, Witt, Vanleer, Ramabhadran, Austin and Xia, Profiling environmental chemicals for activity in the antioxidant response element signaling pathway using a high throughput screening approach, Environ Health Perspect 120, 1150-1156 (2012)).
Briefly, the stably transfected cells of types HepG2 (human liver), AREc32 (human breast), MCF7 (human breast), A549 (human lung), 293T (human kidney), and A172 (human brain) were seeded at low density in 24-well plates and incubated at 37° C. with 10% CO2. After 24 h various concentrations of combinations of agents were added to the cells. After an additional 18 h of incubation, the cells were lysed in their wells with 100 μl of a lysing buffer that contains 3.5 mM sodium pyrophosphate to stabilize light output by luciferase. A 20 μl aliquot of cell lysate was added to a small test tube, placed in a BD Monolight 3010 luminometer for background luminescence, and then 50 μl of 1 mM luciferin was injected into the tube. Relative Light Units integrated for 10 sec were measured for each sample.

HepG2 cells = experiment: Affymetrix PrimeView gene expression array of PB201-treated HepG2 cells; type: cell-based; settings: Homo sapiens, 1.5 micrograms/mL, 18 hours
Protocol: As an example of the cell protective mechanisms induced by PB201 treatment, gene upregulation in cells treated with PB201 was examined. Briefly, cultured HepG2 liver cells were treated with PB201 at 1.5 micrograms/mL concentration for 18 hours, then total RNA was extracted from the HepG2 cells by using the RNeasy Total RNA Isolation Kit (QIAGEN Inc. Valencia, California, USA). The concentration of each sample was determined based on the absorbance at 260 nm (A260). The purity of each sample was determined based on the ratio of A260 to A280. A range of 1.9-2.1 was considered adequately pure. The integrity of Total RNA samples was verified by Agilent 2200 Tape Station. Total RNA (250 ng) was converted to double-stranded cDNA (ds-cDNA) by using the cDNA synthesis kit (Affymetrix). An oligo-dT primer containing a T7 RNA polymerase promoter was utilized. The ds-cDNA was then purified and recovered by using purification beads (Affymetrix). Next, in vitro transcription was performed to generate biotin-labeled cRNA using a RNA Transcript Labeling Kit (Affymetrix). Biotin-labeled cRNA was purified using an RNeasy affinity column (Qiagen).
To ensure optimal hybridization to the oligonucleotide array, the cRNA was fragmented. Fragmentation was performed such that the cRNA fragments are between 50-200 bases in length by incubating the cRNA at 94° C. for 35 min in a fragmentation buffer. The sample was then added to a hybridization solution containing 100 mM IVIES, 1 M Na+, and 20 mM EDTA in the presence of 0.01% Tween 20. The final concentration of the fragmented cRNA was […]. Hybridization was performed by incubating 200 uL of the sample to the Affymetrix GeneChip® PrimeView™ human gene expression array (Affymetrix Inc., Santa Clara, California, USA) at 45° C. for 16 hours using a GeneChip® Hybridization Oven 640 (Affymetrix).
After hybridization, the hybridization solutions were removed and the arrays were washed and stained with Streptavidin-phycoerythrin using a GeneChip® Fluidics Station 450 (Affymetrix). Arrays were read at a resolution of 2.5 to 3 microns using the GeneChip Scanner 3000 (Affymetrix). Each gene was represented by the use of −11 probes per transcript and many control probes. The Command Console GeneChip software program was used to determine the intensity of expression for all genes on the array. For this experiment, fold-induction of genes by PB201 treatment of HepG2 cells was calculated compared to the average intensity observed in control HepG2 cells in culture solution without any added stimulus such as PB201.

[2] = Aqueous solubility / visual dissolution in PBS with and without HPBCD; type: physicochemical; settings: for Aqueous solubility alone: water or aqueous solutions, no solubility enhancer
Protocol: In this example, approaches were used to increase the aqueous distribution of the otherwise relatively insoluble 1,3-diphenyl-1,3-propanedione (DBM) by adding 2-hydroxypropyl beta-cyclodextrin (HPBCD) at a molar ratio (DBM:HPBCD) of 1:3. […] To verify its presence in the aqueous solutions, the samples were tested for activity of PB201 using HepG2-ARE promoter/reporter cells, which are responsive to PB201 and other Nrf2-activators by promoting the expression of luciferase.

[3] = system: Interleukin-8 (IL-8) release, primary human lung epithelial cells; experiment: IL-8 release from primary human lung epithelial cells stimulated with cigarette smoke extract; type: cell-based; settings: primary human lung epithelial cells exposed to CSE for 7 days, vs untreated CSE-stimulated cells
Source text: As an example of the cell protective mechanisms induced by PB201 treatment, release of the proinflammatory cytokine Interleukin-8 (IL-8) was attenuated in primary human lung epithelial cells treated with PB201 compared to untreated cells when both were stimulated with cigarette smoke extract (FIG. 9).

oral mucositis = experiment: Oral mucositis in a mammal receiving radiation treatment or chemotherapy, topical oral administration; type: in vivo; settings: topical within oral cavity daily, vs untreated or placebo
Protocol: A formulation of PB201 was administered topically within the oral cavity daily to a mammal receiving radiation treatment or chemotherapy that can cause oral mucositis as a side effect. PB201 administration decreased the frequency and/or severity of the oral mucositis as compared to untreated or placebo treated subjects.

## O=C(CC(=O)c1ccccc1)c1ccccc1 [PB201, 1,3-diphenyl-1,3-propanedione]
[1]; A172 human brain cell line, other experiments (FIG. 5)
  Induction of Nrf2-dependent luciferase gene expression: lower, but measurable, induction
[1]; brain cells (A172), this experiment (FIGS. 2-4)
  Nrf2 gene activation and luciferase expression: no activation
[1]; breast cells (AREc32, MCF7), 18 h incubation
  Nrf2 gene activation and luciferase expression: exhibited Nrf2 gene activation and luciferase expression
[1]; kidney cells (293T), 18 h incubation
  Nrf2 gene activation and luciferase expression: exhibited Nrf2 gene activation and luciferase expression
[1]; liver cells (HepG2), 18 h incubation
  Nrf2 gene activation and luciferase expression: exhibited Nrf2 gene activation and luciferase expression
[1]; lung cells (A549; constitutive Nrf2 activation due to mutation)
  Nrf2 gene activation and luciferase expression: lesser activation; also recorded: low or negative response
HepG2 cells; vs control HepG2, read-out: Fold induction by PB201: AGPAT9
  fold induction at 1.5 µg/mL: 2.46
HepG2 cells; vs control HepG2, read-out: Fold induction by PB201: AKR1B10///AKR1B15
  fold induction at 1.5 µg/mL: 5.85
HepG2 cells; vs control HepG2, read-out: Fold induction by PB201: AKR1B15
  fold induction at 1.5 µg/mL: 4.1
HepG2 cells; vs control HepG2, read-out: Fold induction by PB201: AKR1C1
  fold induction at 1.5 µg/mL: 4.97
HepG2 cells; vs control HepG2, read-out: Fold induction by PB201: AKR1C2///LOC100653286
  fold induction at 1.5 µg/mL: 6.56
HepG2 cells; vs control HepG2, read-out: Fold induction by PB201: AQP3
  fold induction at 1.5 µg/mL: 3
HepG2 cells; vs control HepG2, read-out: Fold induction by PB201: BHMT2
  fold induction at 1.5 µg/mL: 3.8
HepG2 cells; vs control HepG2, read-out: Fold induction by PB201: CCPG1///DYX1C1-CCPG1
  fold induction at 1.5 µg/mL: 2.51
HepG2 cells; vs control HepG2, read-out: Fold induction by PB201: CYP4F3
  fold induction at 1.5 µg/mL: 2.46
HepG2 cells; vs control HepG2, read-out: Fold induction by PB201: CYP4F11
  fold induction at 1.5 µg/mL: 4.43
HepG2 cells; vs control HepG2, read-out: Fold induction by PB201: EID3
  fold induction at 1.5 µg/mL: 4.18
HepG2 cells; vs control HepG2, read-out: Fold induction by PB201: FOS
  fold induction at 1.5 µg/mL: 2.91
HepG2 cells; vs control HepG2, read-out: Fold induction by PB201: FTH1
  fold induction at 1.5 µg/mL: 2.62
HepG2 cells; vs control HepG2, read-out: Fold induction by PB201: GCLM
  fold induction at 1.5 µg/mL: 4.03
HepG2 cells; vs control HepG2, read-out: Fold induction by PB201: GLA
  fold induction at 1.5 µg/mL: 2.59
HepG2 cells; vs control HepG2, read-out: Fold induction by PB201: GSTA1///GSTA2
  fold induction at 1.5 µg/mL: 6.99
HepG2 cells; vs control HepG2, read-out: Fold induction by PB201: HMOX1
  fold induction at 1.5 µg/mL: 3.64
HepG2 cells; vs control HepG2, read-out: Fold induction by PB201: KYNU
  fold induction at 1.5 µg/mL: 3.9
HepG2 cells; vs control HepG2, read-out: Fold induction by PB201: MLLT11
  fold induction at 1.5 µg/mL: 2.71
HepG2 cells; vs control HepG2, read-out: Fold induction by PB201: OSGIN1
  fold induction at 1.5 µg/mL: 3.18
HepG2 cells; vs control HepG2, read-out: Fold induction by PB201: PANX2
  fold induction at 1.5 µg/mL: 2.88
HepG2 cells; vs control HepG2, read-out: Fold induction by PB201: PTGR1
  fold induction at 1.5 µg/mL: 4.79
HepG2 cells; vs control HepG2, read-out: Fold induction by PB201: SLC16A6
  fold induction at 1.5 µg/mL: 3.8
HepG2 cells; vs control HepG2, read-out: Fold induction by PB201: SQSTM1
  fold induction at 1.5 µg/mL: 2.84
HepG2 cells; vs control HepG2, read-out: Fold induction by PB201: SRXN1
  fold induction at 1.5 µg/mL: 2.8
HepG2 cells; vs control HepG2, read-out: Fold induction by PB201: TEX19
  fold induction at 1.5 µg/mL: 3
HepG2 cells; vs control HepG2, read-out: Fold induction by PB201: TRPV3
  fold induction at 1.5 µg/mL: 3.51
HepG2 cells; vs control HepG2, read-out: Fold induction by PB201: TUBA4A
  fold induction at 1.5 µg/mL: 2.55
[2]; 5 mg in 1 mL PBS with 93 mg HPBCD (3:1 mole ratio)
  Visual dissolution: visually dissolved
[2]; HPBCD added, DBM:HPBCD 1:3
  Change of solubility in aqueous solution by 2-hydroxypropyl beta-cyclodextrin: greatly increased
[2]
  Aqueous solubility alone: nearly insoluble
[2]; listed as 1,3-diphenyl-1,3-propanedione
  Aqueous solubility alone: low aqueous solubility
[3]
  IL-8 release: significantly decreased; also recorded: attenuated
Oral mucositis
  Frequency and/or severity of oral mucositis: decreased
